Test results taken from PMC10165273, “Itch receptor MRGPRX4 interacts with the receptor activity–modifying proteins” (The Journal of Biological Chemistry, 2023).
Like-named read-outs stand apart in the source and are kept apart here.

Molecular target: T1, MRGPRX4 (Homo sapiens, UniProt Q96LA9)
T1 construct: expressed in transfected cells; host or cells: HEK293T
Test: IP1 accumulation HTRF assay, MRGPRX4
Assay type: cell-based
Parameters: key to IP1 Basal / IP1 accumulation with YM (Figure 1c) / response to agonist, MRGPRX4 / IP1 accumulation: % IP1: unstimulated mock-transfected = 0%, fully stimulated MRGPRX4 = 100%
Conditions: for IP1 accumulation (normalized): Supplementary Figure 5d-g

[1] = Tet-On MRGPRX4, over 1pg/cell Normalized, Dox 3300 ng/mL (Fig. S5C)

T1 sequence (Q96LA9 whole entry): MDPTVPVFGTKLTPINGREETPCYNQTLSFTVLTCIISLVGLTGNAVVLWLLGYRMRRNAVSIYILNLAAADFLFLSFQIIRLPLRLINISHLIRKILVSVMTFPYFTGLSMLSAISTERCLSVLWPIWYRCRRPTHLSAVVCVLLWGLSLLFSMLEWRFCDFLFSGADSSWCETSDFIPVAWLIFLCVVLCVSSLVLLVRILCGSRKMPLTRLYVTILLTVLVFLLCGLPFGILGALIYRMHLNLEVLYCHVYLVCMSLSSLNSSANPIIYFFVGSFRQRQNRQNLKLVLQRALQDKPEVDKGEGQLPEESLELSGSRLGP

## CC(C)[C@H]1CC[C@H](C(=O)N[C@H](Cc2ccccc2)C(=O)O)CC1 [Nateglinide]
Tet-On MRGPRX4 1pg/cell, Dox 3300 ng/mL (Fig. S5B), read-out: IP1 EC50
  EC50: 9.26 µM
Tet-On MRGPRX4 1pg/cell, Dox 3300 ng/mL (Fig. S5B), read-out: IP1 Emax
  Emax: 34.4%
Tet-On MRGPRX4 1pg/cell, Dox 3300 ng/mL (Fig. S5B), read-out: IP1 span
  Emax: 35.4%
Tet-On MRGPRX4 1pg/cell, No dox (Fig. S5B)
  IP1 Basal: -1.503
Tet-On MRGPRX4 1pg/cell, No dox (Fig. S5B), read-out: IP1 Emax
  Emax: 25%
Tet-On MRGPRX4 1pg/cell, No dox (Fig. S5B), read-out: IP1 span
  Emax: 26.5%
Tet-On MRGPRX4 2pg/cell, Dox 13 ng/mL (Fig. S5A)
  IP1 Basal: 6.149
Tet-On MRGPRX4 2pg/cell, Dox 13 ng/mL (Fig. S5A), read-out: IP1 EC50
  EC50: 7.35 µM
Tet-On MRGPRX4 2pg/cell, Dox 13 ng/mL (Fig. S5A), read-out: IP1 Emax
  Emax: 84.9%
Tet-On MRGPRX4 2pg/cell, Dox 13 ng/mL (Fig. S5A), read-out: IP1 logEC50 (converted)
  EC50: 7.35 µM
Tet-On MRGPRX4 2pg/cell, Dox 13 ng/mL (Fig. S5A), read-out: IP1 span
  Emax: 78.8%
Tet-On MRGPRX4 2pg/cell, Dox 40 ng/mL (Fig. S5A)
  IP1 Basal: 7.421
Tet-On MRGPRX4 2pg/cell, Dox 40 ng/mL (Fig. S5A), read-out: IP1 EC50
  EC50: 6.07 µM
Tet-On MRGPRX4 2pg/cell, Dox 40 ng/mL (Fig. S5A), read-out: IP1 Emax
  Emax: 87.5%
Tet-On MRGPRX4 2pg/cell, Dox 40 ng/mL (Fig. S5A), read-out: IP1 span
  Emax: 80.1%
Tet-On MRGPRX4 2pg/cell, Dox 1100 ng/mL (Fig. S5A)
  IP1 Basal: 11.03
Tet-On MRGPRX4 2pg/cell, Dox 1100 ng/mL (Fig. S5A), read-out: IP1 Emax
  Emax: 101%
Tet-On MRGPRX4 2pg/cell, Dox 1100 ng/mL (Fig. S5A), read-out: IP1 logEC50 (converted)
  EC50: 5.41 µM
Tet-On MRGPRX4 2pg/cell, Dox 1100 ng/mL (Fig. S5A), read-out: IP1 span
  Emax: 90.4%
Tet-On MRGPRX4 2pg/cell, Dox 3300 ng/mL (Fig. S5A)
  IP1 Basal: 10.81
Tet-On MRGPRX4 2pg/cell, Dox 3300 ng/mL (Fig. S5A), read-out: IP1 EC50
  EC50: 6.36 µM
Tet-On MRGPRX4 2pg/cell, Dox 3300 ng/mL (Fig. S5A), read-out: IP1 Emax
  Emax: 106%
Tet-On MRGPRX4 2pg/cell, Dox 3300 ng/mL (Fig. S5A), read-out: IP1 span
  Emax: 95.6%
Tet-On MRGPRX4 2pg/cell, Dox […] (Fig. S5A)
  IP1 logEC50: -5.040
Tet-On MRGPRX4 2pg/cell, No dox (Fig. S5A)
  IP1 Basal: 0.7169
Tet-On MRGPRX4 2pg/cell, No dox (Fig. S5A), read-out: IP1 Emax
  Emax: 72.3%
Tet-On MRGPRX4 2pg/cell, No dox (Fig. S5A), read-out: IP1 span
  Emax: 71.5%
Tet-On MRGPRX4, over 1pg/cell Normalized, Dox 13 ng/mL (Fig. S5C)
  IP1 Basal: -3.443
Tet-On MRGPRX4, over 1pg/cell Normalized, Dox 13 ng/mL (Fig. S5C), read-out: IP1 EC50
  EC50: 19 µM
Tet-On MRGPRX4, over 1pg/cell Normalized, Dox 13 ng/mL (Fig. S5C), read-out: IP1 Emax
  Emax: 59.2%
Tet-On MRGPRX4, over 1pg/cell Normalized, Dox 13 ng/mL (Fig. S5C), read-out: IP1 span
  Emax: 62.7%
Tet-On MRGPRX4, over 1pg/cell Normalized, Dox 40 ng/mL (Fig. S5C)
  IP1 Basal: -3.289
Tet-On MRGPRX4, over 1pg/cell Normalized, Dox 40 ng/mL (Fig. S5C), read-out: IP1 EC50
  EC50: 13.5 µM
Tet-On MRGPRX4, over 1pg/cell Normalized, Dox 40 ng/mL (Fig. S5C), read-out: IP1 Emax
  Emax: 63.5%
Tet-On MRGPRX4, over 1pg/cell Normalized, Dox 40 ng/mL (Fig. S5C), read-out: IP1 span
  Emax: 66.8%
Tet-On MRGPRX4, over 1pg/cell Normalized, Dox 1100 ng/mL (Fig. S5C)
  IP1 Basal: -2.284
Tet-On MRGPRX4, over 1pg/cell Normalized, Dox 1100 ng/mL (Fig. S5C), read-out: IP1 EC50
  EC50: 10.7 µM
Tet-On MRGPRX4, over 1pg/cell Normalized, Dox 1100 ng/mL (Fig. S5C), read-out: IP1 Emax
  Emax: 100%
Tet-On MRGPRX4, over 1pg/cell Normalized, Dox 1100 ng/mL (Fig. S5C), read-out: IP1 span
  Emax: 102%
[1]
  IP1 Basal: 3.818
  IP1 logEC50: -5.036
Tet-On MRGPRX4, over 1pg/cell Normalized, Dox 3300 ng/mL (Fig. S5C), read-out: IP1 EC50
  EC50: 9.2 µM
Tet-On MRGPRX4, over 1pg/cell Normalized, Dox 3300 ng/mL (Fig. S5C), read-out: IP1 Emax
  Emax: 111%
Tet-On MRGPRX4, over 1pg/cell Normalized, Dox 3300 ng/mL (Fig. S5C), read-out: IP1 span
  Emax: 107%
Tet-On MRGPRX4, over 1pg/cell Normalized, No dox (Fig. S5C)
  IP1 Basal: -1.726
Tet-On MRGPRX4, over 1pg/cell Normalized, No dox (Fig. S5C), read-out: IP1 Emax
  Emax: 55.6%
Tet-On MRGPRX4, over 1pg/cell Normalized, No dox (Fig. S5C), read-out: IP1 span
  Emax: 57.3%
Tet-On MRGPRX4:RAMP Ratio 1:0 (Fig. S5D-F)
  IP1 Basal: 8.926
Tet-On MRGPRX4:RAMP Ratio 1:0 (Fig. S5D-F), read-out: IP1 EC50
  EC50: 4.06 µM
Tet-On MRGPRX4:RAMP Ratio 1:0 (Fig. S5D-F), read-out: IP1 Emax
  Emax: 107%
Tet-On MRGPRX4:RAMP Ratio 1:0 (Fig. S5D-F), read-out: IP1 span
  Emax: 97.7%
Tet-On MRGPRX4:RAMP Ratio 1:0, no dox (Fig. S5D-F)
  IP1 Basal: 0.2822
Tet-On MRGPRX4:RAMP Ratio 1:0, no dox (Fig. S5D-F), read-out: IP1 Emax
  Emax: 2.46%
Tet-On MRGPRX4:RAMP Ratio 1:0, no dox (Fig. S5D-F), read-out: IP1 span
  Emax: 2.17%
Construct FLAG-MRGPRX4-1D4 (Fig. S4A-F)
  IP1 Basal: 6.903
Construct FLAG-MRGPRX4-1D4 (Fig. S4A-F), read-out: IP1 EC50
  EC50: 10.1 µM
Construct FLAG-MRGPRX4-1D4 (Fig. S4A-F), read-out: IP1 Emax
  Emax: 102%
Construct FLAG-MRGPRX4-1D4 (Fig. S4A-F), read-out: IP1 span
  Emax: 95.1%
Construct FLAG-MRGPRX4-GFP10-1D4 (Fig. S4A-F)
  IP1 Basal: 7.722
Construct FLAG-MRGPRX4-GFP10-1D4 (Fig. S4A-F), read-out: IP1 EC50
  EC50: 9.91 µM
Construct FLAG-MRGPRX4-GFP10-1D4 (Fig. S4A-F), read-out: IP1 Emax
  Emax: 110%
Construct FLAG-MRGPRX4-GFP10-1D4 (Fig. S4A-F), read-out: IP1 span
  Emax: 102%
Construct FLAG-NLuc-HT7-MRGPRX4-GFP10-1D4 (Fig. S4A-F)
  IP1 Basal: 8.575
Construct FLAG-NLuc-HT7-MRGPRX4-GFP10-1D4 (Fig. S4A-F), read-out: IP1 EC50
  EC50: 6.41 µM
Construct FLAG-NLuc-HT7-MRGPRX4-GFP10-1D4 (Fig. S4A-F), read-out: IP1 Emax
  Emax: 55.2%
Construct FLAG-NLuc-HT7-MRGPRX4-GFP10-1D4 (Fig. S4A-F), read-out: IP1 span
  Emax: 46.6%
Construct HA-MRGPRX4-1D4 (Fig. S4A-F)
  IP1 Basal: 13.13
Construct HA-MRGPRX4-1D4 (Fig. S4A-F), read-out: IP1 EC50
  EC50: 10.7 µM
Construct HA-MRGPRX4-1D4 (Fig. S4A-F), read-out: IP1 Emax
  Emax: 91.5%
Construct HA-MRGPRX4-1D4 (Fig. S4A-F), read-out: IP1 span
  Emax: 78.4%
Log [nateglinide] (M) -4, MRGPRX4 no dox
  IP1 accumulation (normalized): 1.452
Log [nateglinide] (M) -4.69897, MRGPRX4
  IP1 accumulation (normalized): 92.3953
Log [nateglinide] (M) -5.39794, MRGPRX4
  IP1 accumulation (normalized): 57.3306
Log [nateglinide] (M) -6.09691, MRGPRX4
  IP1 accumulation (normalized): 20.5565
Log [nateglinide] (M) -6.79588, MRGPRX4
  IP1 accumulation (normalized): 15.0154
Log [nateglinide] (M) -7.49485, MRGPRX4
  IP1 accumulation (normalized): 11.7498
